Data published in the NIST ThermoML archive (doi:10.1021/je4004417).
Where “and” joins values, the source holds several entries; their conditions need not be identical. Equal values may be shown once. Numbers after ± are expanded uncertainties.

Columns and labels:
[1] = Liquid, Closed cell (Static) method
[2] = refractive index (Na D-line) (dimensionless); conditions: 293.15 K; 101.33 kPa; Liquid; Standard Abbe refractometry

| vapor or sublimation pressure ([1]; 343.15 K) | vapor or sublimation pressure ([1]; 363.15 K) | vapor or sublimation pressure ([1]; 393.15 K) | refractive index [2] | Compound |
| --- | --- | --- | --- | --- |
| 105.47 ± 2.2 kPa | 190.95 ± 2.3 kPa | 400.27 ± 2.5 kPa | 1.3748 ± 0.0007 | CCCCCC [hexane] |
| 0.16 ± 0.21 kPa and 0.15 ± 0.21 kPa | 0.49 ± 0.21 kPa | 2.18 ± 0.21 kPa | 1.4844 ± 0.0007 | O=CN1CCOCC1 [N-formylmorpholine] |
| 40.4 ± 0.31 kPa | 78.59 ± 0.43 kPa | 183.7 ± 2.2 kPa | 1.3877 ± 0.0007 | CCCCCCC [heptane] |
